Where “and” joins values, the source holds several entries; their conditions need not be identical. Identical values can stand only once.
Tested on: 855422-203-R-J1-PDC complex spheroid growth
Assay: Anticancer human tumor 855422-203-R-J1-PDC patient-derived bladder carcinoma cell line growth inhibition [AhR]
Conditions: for viability, T/C: stronger effect = lower value
Procedure, shortened: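 Spheroids combined tumor cells with HUVEC endothelial cells and human MSCs as stroma. AhR antagonists were paired with standard or investigational drugs, each dosed in half-log steps down from near clinical Cmax, or from 10 microM where Cmax was unknown.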

[1] = curve of first compound, second compound 0.1 µM
[2] = curve of first compound, second compound 0.316 µM
[3] = curve of first compound, second compound 1 µM
[4] = curve of first compound, second compound 3.16 µM
[5] = curve of first compound, second compound 10 µM
[6] = second compound 0.1 µM, first compound 0.0316 µM
[7] = second compound 0.1 µM, first compound 0.1 µM
[8] = second compound 0.1 µM, first compound 0.316 µM
[9] = second compound 0.1 µM, first compound 1 µM
[10] = second compound 0.1 µM, first compound 3.16 µM
[11] = second compound 0.1 µM, first compound 10 µM
[12] = second compound 0.316 µM, first compound 0.0316 µM
[13] = second compound 0.316 µM, first compound 0.1 µM
[14] = second compound 0.316 µM, first compound 0.316 µM
[15] = second compound 0.316 µM, first compound 1 µM
[16] = second compound 0.316 µM, first compound 3.16 µM
[17] = second compound 0.316 µM, first compound 10 µM
[18] = second compound 1 µM, first compound 0.0316 µM
[19] = second compound 1 µM, first compound 0.1 µM
[20] = second compound 1 µM, first compound 0.316 µM
[21] = second compound 1 µM, first compound 1 µM
[22] = second compound 1 µM, first compound 3.16 µM
[23] = second compound 1 µM, first compound 10 µM
[24] = second compound 3.16 µM, first compound 0.0316 µM
[25] = second compound 3.16 µM, first compound 0.1 µM
[26] = second compound 3.16 µM, first compound 0.316 µM
[27] = second compound 3.16 µM, first compound 1 µM
[28] = second compound 3.16 µM, first compound 3.16 µM
[29] = second compound 3.16 µM, first compound 10 µM
[30] = second compound 10 µM, first compound 0.0316 µM
[31] = second compound 10 µM, first compound 0.1 µM
[32] = second compound 10 µM, first compound 0.316 µM
[33] = second compound 10 µM, first compound 1 µM
[34] = second compound 10 µM, first compound 3.16 µM
[35] = second compound 10 µM, first compound 10 µM
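Also: spheroids exposed to agents for seven days before readout.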
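For viability, T/C in this document: percent of DMSO vehicle control luminescence viability.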

O=C(c1cc(Cc2n[nH]c(=O)c3ccccc23)ccc1F)N1CCN(C(=O)C2CC2)CC1 + Cc1cncc(-c2nc(NCCc3c[nH]c4ccccc34)c3ncn(C(C)C)c3n2)c1
IC50 [1]: > 10000 nM | IC50 [2]: > 10000 nM | IC50 [3]: > 10000 nM | IC50 [4]: > 10000 nM | IC50 [5]: < 31.6 nM | viability, T/C [6]: 106% | viability, T/C [7]: 102% | viability, T/C [8]: 99.6% | viability, T/C [9]: 103% | viability, T/C [10]: 108% | viability, T/C [11]: 90.9% | viability, T/C [12]: 102% | viability, T/C [13]: 109% | viability, T/C [14]: 101% | viability, T/C [15]: 93.7% | viability, T/C [16]: 101% | viability, T/C [17]: 86.7% | viability, T/C [18]: 98.2% | viability, T/C [19]: 93% | viability, T/C [20]: 103% | viability, T/C [21]: 87.9% | viability, T/C [22]: 94.7% | viability, T/C [23]: 89.5% | viability, T/C [24]: 78.6% | viability, T/C [25]: 83.6% | viability, T/C [26]: 75.9% | viability, T/C [27]: 71.2% | viability, T/C [28]: 89.8% | viability, T/C [29]: 78.6% | viability, T/C [30]: 16.8% | viability, T/C [31]: 12.5% | viability, T/C [32]: 7.7% | viability, T/C [33]: 3.22% | viability, T/C [34]: 6.34% | viability, T/C [35]: 5.85%

COc1cccc2c1C(=O)c1c(O)c3c(c(O)c1C2=O)CC(O)(C(=O)CO)CC3OC1CC(N)C(O)C(C)O1 (configuration not stated) + CC(CO)NC(=O)c1cc(-c2ccc(Cl)cc2)nn(-c2cnn(C)c2)c1=O
IC50 [1]: < 31.6 nM | IC50 [2]: < 31.6 nM | IC50 [3]: < 31.6 nM | IC50 [4]: < 31.6 nM | IC50 [5]: < 31.6 nM | viability, T/C [6]: 34.3% | viability, T/C [7]: 21.9% | viability, T/C [8]: 4.3% | viability, T/C [9]: 1.57% | viability, T/C [10]: 1.7% | viability, T/C [11]: 2.88% | viability, T/C [12]: 31.6% | viability, T/C [13]: 21.3% | viability, T/C [14]: 3.51% | viability, T/C [15]: 1.36% | viability, T/C [16]: 1.02% | viability, T/C [17]: 2.82% | viability, T/C [18]: 37.7% | viability, T/C [19]: 21.3% | viability, T/C [20]: 3.4% | viability, T/C [21]: 1.68% | viability, T/C [22]: 0.81% | viability, T/C [23]: 3.37% | viability, T/C [24]: 32% | viability, T/C [25]: 17.5% | viability, T/C [26]: 2.92% | viability, T/C [27]: 1.21% | viability, T/C [28]: 0.84% | viability, T/C [29]: 4.27% | viability, T/C [30]: 32.9% | viability, T/C [31]: 17.8% | viability, T/C [32]: 2.64% | viability, T/C [33]: 0.53% | viability, T/C [34]: 0.94% | viability, T/C [35]: 5.77%

NS(=O)(=O)OCC1CC(n2ccc3c(NC4CCc5ccccc54)ncnc32)CC1O (configuration not stated) + Cc1cncc(-c2nc(NCCc3c[nH]c4ccccc34)c3ncn(C(C)C)c3n2)c1
IC50 [1]: 860 nM | IC50 [2]: 647 nM | IC50 [3]: 499 nM | IC50 [4]: 216 nM | IC50 [5]: < 31.6 nM | viability, T/C [6]: 114% | viability, T/C [7]: 119% | viability, T/C [8]: 78.2% | viability, T/C [9]: 50.4% | viability, T/C [10]: 12.8% | viability, T/C [11]: 10.9% | viability, T/C [12]: 96.5% | viability, T/C [13]: 113% | viability, T/C [14]: 52.1% | viability, T/C [15]: 50.9% | viability, T/C [16]: 10.8% | viability, T/C [17]: 9.91% | viability, T/C [18]: 98.3% | viability, T/C [19]: 106% | viability, T/C [20]: 50.7% | viability, T/C [21]: 40.3% | viability, T/C [22]: 11.7% | viability, T/C [23]: 9.3% | viability, T/C [24]: 80.2% | viability, T/C [25]: 75.9% | viability, T/C [26]: 37.1% | viability, T/C [27]: 12.5% | viability, T/C [28]: 8.33% | viability, T/C [29]: 8.5% | viability, T/C [30]: 9.89% | viability, T/C [31]: 4.7% | viability, T/C [32]: 3.03% | viability, T/C [33]: 0.63% | viability, T/C [34]: 1.67% | viability, T/C [35]: 1.45%

Nc1ncn(C2CC(O)C(CO)S2)c(=O)n1 (configuration not stated) + CC(CO)NC(=O)c1cc(-c2ccc(Cl)cc2)nn(-c2cnn(C)c2)c1=O
IC50 [1]: > 300 nM | IC50 [2]: > 300 nM | IC50 [3]: > 300 nM | IC50 [4]: > 300 nM | IC50 [5]: > 300 nM | viability, T/C (second compound 0.1 µM, first compound 0.000949 µM): 91.9% | viability, T/C (second compound 0.1 µM, first compound 0.003 µM): 90.2% | viability, T/C (second compound 0.1 µM, first compound 0.00949 µM): 88.3% | viability, T/C (second compound 0.1 µM, first compound 0.03 µM): 93.4% | viability, T/C (second compound 0.1 µM, first compound 0.0949 µM): 96.7% | viability, T/C (second compound 0.1 µM, first compound 0.3 µM): 87.4% | viability, T/C (second compound 0.316 µM, first compound 0.000949 µM): 97.3% | viability, T/C (second compound 0.316 µM, first compound 0.003 µM): 93.3% | viability, T/C (second compound 0.316 µM, first compound 0.00949 µM): 99.4% | viability, T/C (second compound 0.316 µM, first compound 0.03 µM): 95.2% | viability, T/C (second compound 0.316 µM, first compound 0.0949 µM): 87.6% | viability, T/C (second compound 0.316 µM, first compound 0.3 µM): 82.2% | viability, T/C (second compound 1 µM, first compound 0.000949 µM): 99.9% | viability, T/C (second compound 1 µM, first compound 0.003 µM): 90.9% | viability, T/C (second compound 1 µM, first compound 0.00949 µM): 101% | viability, T/C (second compound 1 µM, first compound 0.03 µM): 92.1% | viability, T/C (second compound 1 µM, first compound 0.0949 µM): 101% | viability, T/C (second compound 1 µM, first compound 0.3 µM): 86.7% | viability, T/C (second compound 3.16 µM, first compound 0.000949 µM): 91.8% | viability, T/C (second compound 3.16 µM, first compound 0.003 µM): 94.5% | viability, T/C (second compound 3.16 µM, first compound 0.00949 µM): 85.3% | viability, T/C (second compound 3.16 µM, first compound 0.03 µM): 101% | viability, T/C (second compound 3.16 µM, first compound 0.0949 µM): 90.9% | viability, T/C (second compound 3.16 µM, first compound 0.3 µM): 80.4% | viability, T/C (second compound 10 µM, first compound 0.000949 µM): 92.5% | viability, T/C (second compound 10 µM, first compound 0.003 µM): 98% | viability, T/C (second compound 10 µM, first compound 0.00949 µM): 87.3% | viability, T/C (second compound 10 µM, first compound 0.03 µM): 93.5% | viability, T/C (second compound 10 µM, first compound 0.0949 µM): 89.8% | viability, T/C (second compound 10 µM, first compound 0.3 µM): 80.3%

O=C(C=Cc1cccc(S(=O)(=O)Nc2ccccc2)c1)NO + CC(CO)NC(=O)c1cc(-c2ccc(Cl)cc2)nn(-c2cnn(C)c2)c1=O
IC50 [1]: 2150 nM | IC50 [2]: 1970 nM | IC50 [3]: 2030 nM | IC50 [4]: 1540 nM | IC50 [5]: 1730 nM | viability, T/C [6]: 87.4% | viability, T/C [7]: 88.6% | viability, T/C [8]: 91.1% | viability, T/C [9]: 71.7% | viability, T/C [10]: 38.5% | viability, T/C [11]: 1.42% | viability, T/C [12]: 89.1% | viability, T/C [13]: 88.2% | viability, T/C [14]: 92.7% | viability, T/C [15]: 70.6% | viability, T/C [16]: 34.7% | viability, T/C [17]: 0.82% | viability, T/C [18]: 93.7% | viability, T/C [19]: 87.8% | viability, T/C [20]: 86.6% | viability, T/C [21]: 79.8% | viability, T/C [22]: 31.7% | viability, T/C [23]: 0.88% | viability, T/C [24]: 83.2% | viability, T/C [25]: 86.8% | viability, T/C [26]: 90.7% | viability, T/C [27]: 60.3% | viability, T/C [28]: 27.9% | viability, T/C [29]: 0.71% | viability, T/C [30]: 87.2% | viability, T/C [31]: 90.3% | viability, T/C [32]: 79.4% | viability, T/C [33]: 67.3% | viability, T/C [34]: 31.8% | viability, T/C [35]: 0.94%

CC1COCCN1c1cc(-c2ccnn2C)c2ccnc(-c3ccn[nH]3)c2n1 (configuration not stated)
viability, T/C (compound 0.00316 µM): 99.8% and 104% and 109% | viability, T/C (compound 0.01 µM): 100% and 108% and 107% | viability, T/C (compound 0.0316 µM): 106% and 101% and 96.2% | viability, T/C (compound 0.1 µM): 98.3% and 103% and 91.9% | viability, T/C (compound 0.316 µM): 36.1% and 71.9% and 59.7% | viability, T/C (compound 1 µM): 12.2% and 25.8% and 17.1% | IC50 (curve of compound): 244 nM and 546 nM and 421 nM

From PubChem BioAssay AID1919005 (Molecular Pharmacology Branch, DTP, NCI, 2023)
